Results taken from patent US20250140406A1, “CLASSIFYING TUMORS AND PREDICTING RESPONSIVENESS” (Oncocyte Corporation, priority 2022, published 2025).
Square brackets hold non-standard residues; d marks the D form. Peptide text beside a SMILES is read from it.

Columns and labels:
[1] = system: cancer cell lines classified IM, MSL, M; assay: PRISM screen compound sensitivity correlated with IM, MSL and M subtype of cell lines (101 gene signature); format: cell-based; details: for IM Corr test: correlation of PRISM compound sensitivity with IM subtype correlation; for M Corr test: correlation of PRISM compound sensitivity with M subtype correlation; for MSL Corr test: correlation of PRISM compound sensitivity with MSL subtype correlation; for TNBCType train: 101 gene signature
[2] = system: cancer cell lines, DetermaIO classes; assay: Association of PRISM compound sensitivity with DetermaIO (DTIO) cell line classes; format: cell-based
[3] = correlation of PRISM compound sensitivity with DTIO (DetermaIO); test cell set (188 cell lines)
[4] = correlation of PRISM compound sensitivity with DTIO (DetermaIO); training cell set (371 cell lines)
[5] = correlation of PRISM compound sensitivity with DTIO; test cell set
[6] = correlation of PRISM compound sensitivity with DTIO; training cell set
[7] = correlation of PRISM compound sensitivity with DTIO; test cell set (188 cell lines)
[8] = correlation of PRISM compound sensitivity with DTIO; training cell set (371 cell lines)
[9] = subtype (IM, MSL or M) with which compound sensitivity is negatively correlated, training cell set (371 cell lines)
[10] = subtype (IM, MSL or M) with which PRISM compound sensitivity is negatively correlated, training cell set
[11] = subtype (IM, MSL or M) assigned to the compound by negative correlation of PRISM sensitivity with subtype, training cell set (371 cell lines)

| Compound | IM Corr test ([1]; test cell set (188 cell lines)) | M Corr test ([1]; test cell set (188 cell lines)) | MSL Corr test ([1]; test cell set (188 cell lines)) | IM Corr test ([1]; test cell set) | M Corr test ([1]; test cell set) | MSL Corr test ([1]; test cell set) | DTIO Corr test [2, 5] | DTIO Corr train [2, 6] | further results |
| --- | --- | --- | --- | --- | --- | --- | --- | --- | --- |
| Cc1ncc(-c2ccnc(Nc3ccc(S(C)(=O)=O)cc3)n2)n1C(C)C [AZD5438] | −0.1498 | 0.0844 | 0.1271 | – | – | – | – | – | DTIO Corr test [2, 3]: −0.1301; DTIO Corr train [2, 4]: −0.08372 |
| Cc1nc(C)c(-c2ccc(C3CCC(CC(=O)O)CC3)cc2)nc1C(N)=O (stereo not shown) [AZD7687] | – | – | – | −0.05809 | 0.08898 | 0.08286 | −0.03167 | −0.02143 | – |
| CNC(=O)CN1CCC(Oc2cc3c(Nc4cccc(Cl)c4F)ncnc3cc2OC)CC1 [AZD8931] | −0.09307 | 0.2208 | 0.4034 | – | – | – | – | – | DTIO Corr test [2, 7]: 0.04159; DTIO Corr train [2, 8]: −0.08735 |
| Cc1c(-c2ccnn2C)cc(C(=O)NCc2ccc(S(C)(=O)=O)cn2)c(=O)n1-c1cccc(C(F)(F)F)c1 [AZD9668] | – | – | – | 0.06774 | −0.1139 | 0.009005 | −0.00254 | 0.06934 | – |
| O=C(c1ccc(Cl)o1)N1CC2CNCC2C1 (stereo not shown) [AZD 1446] | −0.01023 | −0.00226 | −0.09838 | – | – | – | −0.00648 | −0.01778 | TNBCType train [1, 9]: MSL |
| Cc1ccc(S(=O)(=O)/C=C/C#N)cc1 [BAY-11-7082] | 0.07793 | −0.1474 | 0.0317 | – | – | – | 0.04014 | −0.00647 | – |
| Cc1oc2nc3c(c(NC(=O)CN4CCCC4=O)c2c1C)CCCC3 [BCI-540] | – | – | – | 0.07689 | −0.08152 | −0.1815 | 0.01234 | −0.02488 | TNBCType train [1, 10]: MSL |
| CC(C)CCN1c2nc(Nc3cc(F)c(O)c(F)c3)ncc2N(C)C(=O)C1C (stereo not shown) [BI-D1870] | −0.01584 | 0.01001 | 0.02005 | – | – | – | 0.01854 | −0.09163 | – |
| C/C(=C\C(=O)Nc1ccccc1C(=O)O)c1ccc2ccccc2c1 [BIBR-1532] | −0.1712 | 0.141 | −0.1482 | – | – | – | −0.226 | −0.05255 | TNBCType train [1, 9]: MSL |
| CN1C(=O)N(c2cc(Cl)cc(Cl)c2)C(=O)[C@]12CN(Cc1cc(C(=O)O)cs1)C[C@H]2c1ccc(C#N)cc1 [BMS-587101] | −0.05699 | 0.1367 | −0.03676 | – | – | – | −0.08591 | 0.01986 | TNBCType train [1, 9]: MSL |
| Cc1c(NC(=O)OC[C@@H]2COCCN2)cn2ncnc(Nc3ccc4c(cnn4Cc4cccc(F)c4)c3)c12 [BMS-599626] | −0.1901 | 0.2776 | 0.4191 | – | – | – | −0.02871 | −0.07697 | DTIO Corr test ([2]; correlation of compound sensitivity with DetermaIO (DTIO), test set): −0.02871; DTIO Corr train ([2]; correlation of compound sensitivity with DetermaIO (DTIO), training set): −0.07697 |
| COc1cccc(Nc2ncnn3ccc(CN4CC[C@@H](N)[C@H](O)C4)c23)c1 [BMS-690514] | −0.1648 | 0.2486 | 0.3466 | – | – | – | – | – | DTIO Corr test [2, 3]: 0.01346; DTIO Corr train [2, 4]: −0.1666; DTIO Corr test ([2]; correlation of compound sensitivity with DTIO, test set): 0.01346; DTIO Corr train ([2]; correlation of compound sensitivity with DTIO, training set): −0.1666; DTIO Corr test ([2]; correlation of compound sensitivity with DTIO; test set): 0.01346; DTIO Corr train ([2]; correlation of compound sensitivity with DTIO; training set): −0.1666 |
| COc1cc(C(=O)c2c(C)oc3c(O)c(OC)ccc23)cc(OC)c1OC [BNC105] | – | – | – | −0.07446 | −0.08585 | −0.09188 | −0.1135 | −0.1119 | TNBCType train [1, 10]: MSL |
| O=C1/C(=C/c2ccccc2)C[C@@]2(O)[C@H]3Cc4ccc(O)c5c4[C@@]2(CCN3CC2CC2)[C@H]1O5 [BNTX] | −0.1371 | 0.09323 | 0.1062 | – | – | – | −0.1085 | −0.1416 | – |
| CC(C)C[C@@H]1NC(=O)[C@@H](C(C)C)NC(=O)[C@@H]2CCCN2C(=O)[C@@H](CC(=O)O)NC(=O)[C@@H](Cc2c[nH]c3ccccc23)NC1=O [BQ-123] (cyclo(L[dW][dD]P[dV])) | 0.0449 | −0.1374 | −0.1421 | – | – | – | 0.07641 | 0.04394 | TNBCType train [1, 9]: MSL |
| O=C(Nc1cccc(Nc2ncc(Br)c(NCCc3cnc[nH]3)n2)c1)N1CCCC1 [BX-912] | – | – | – | 0.1542 | −0.2367 | −0.03732 | 0.03523 | 0.04083 | – |
| Cc1ccc(-n2sc(=O)n(Cc3ccc(F)cc3)c2=O)cc1 [CCG-50014] | 0.03964 | −0.1198 | −0.2063 | – | – | – | −0.03813 | 0.0404 | – |
| Nc1nc(-c2ccc(Cl)c(Cl)c2)c(-c2ccncc2)s1 [CGH2466] | −0.07415 | 0.03776 | 0.04331 | – | – | – | – | – | DTIO Corr test [2, 3]: −0.01803; DTIO Corr train [2, 4]: −0.09319 |
| CCCCCCCCCCC(C)(C)C(=O)Nc1c(OC)cc(OC)cc1OC [CI-976] | 0.06082 | −0.082 | −0.03363 | – | – | – | – | – | TNBCType train [1, 11]: MSL; DTIO Corr test [2, 3]: 0.03532; DTIO Corr train [2, 4]: 0.09198 |
| C=CC(=O)Nc1cccc(Nc2nc(Nc3ccc(Oc4ccnc(C(=O)NC)c4)cc3)ncc2F)c1 [CNX-774] | – | – | – | 0.09358 | −0.09506 | 0.02463 | 0.1389 | 0.07802 | – |
| O=C(O)C1CN(CCCP(=O)(O)O)CCN1 (stereo not shown) [CPP] | −0.04467 | −0.01154 | −0.2411 | – | – | – | – | – | TNBCType train [1, 11]: MSL; DTIO Corr test [2, 3]: −0.04842; DTIO Corr train [2, 4]: −0.04563 |
| CCn1c(=O)[nH]c2cc(Cl)c(Cl)cc21 [DCEBIO] | 0.1207 | −0.1198 | −0.1352 | – | – | – | – | – | DTIO Corr test [2, 3]: 0.121; DTIO Corr train [2, 4]: 0.1577 |
| CC(=O)Nc1ccc(Cc2ccc(NC(C)=O)cc2)cc1 [FH1] | – | – | – | −0.11 | 0.01237 | −0.1426 | −0.06073 | −0.08253 | – |
| NC(=O)c1cccc(-c2cc(Nc3ccc(OC(F)(F)F)cc3)ncn2)c1 [GNF-2] | −0.03304 | −0.07177 | −0.05938 | – | – | – | – | – | DTIO Corr test [2, 7]: −0.02831; DTIO Corr train [2, 8]: −0.02935 |
| CCCCC#Cc1nc(NC)c2ncn([C@@H]3O[C@H](CO)[C@@H](O)[C@H]3O)c2n1 [HEMADO] | – | – | – | −0.0662 | 0.05737 | 0.1849 | −0.09381 | −0.08651 | – |
